The record followed here is patent publication US11253477B2, “Compositions based on propolis nanocapsules which can be used as carriers for substances of interest, methods for producing same and use thereof” (EMPRESA BRASILEIRA DE PESQUISA AGROPECUÁRIA—EMBRAPA, priority 2010, dated 2022).

This assay deals with Staphyloccoccus aureus, strain ATCC23273. Kind of assay: Colony forming units in agar BHI of samples from the bactericidal/bacteriostatic test. It is filed as cell-based, Staphylococcus aureus. The arrangement: key to Colony forming unites (CFU) in agar BHI: i = uncountable. Here is the method: The bactericidal/bacteriostatic effect of the propolis nanoparticles, of nanoencapsulated arithromycin in propolis extract and of pure arithromycin was determined in vitro against samples of Staphylocossus aureus (strain ATCC23273) cultivated in Mueller Hinton culture broth, according to Table 3. Since azithromycyn is a bacteriostatic antibiotic, the samples of the different dilutions were used to determine the core of colony forming units (UFC) in agar BHI (brain-heart-infusion), and thereby determine the bactericidal/bacteriostatic effect shown in Table 4.

For the compound `CC[C@H]1OC(=O)[C@H](C)[C@@H](O[C@H]2C[C@@](C)(OC)[C@@H](O)[C@H](C)O2)[C@H](C)[C@@H](O[C@@H]2O[C@H](C)C[C@H](N(C)C)[C@H]2O)[C@](C)(O)C[C@@H](C)CN(C)[C@H](C)[C@@H](O)[C@]1(C)O` [A, azithromycin], the “concentration with bactericidal effect on Staphylococcus aureus” value (from broth test and CFU count) is no less than 128 µg/mL. Besides, the “Colony forming unites (CFU) in agar BHI” value is, setting by setting: (origin tube 4) “i”; (origin tube 8) 30 UFC; (origin tube 16) 3 UFC; (origin tube 32) 1 UFC; (origin tube 64) 1 UFC; (origin tube 128) 0 UFC. Also, the “Colony forming unites (CFU) in agar BHI” value by setting is: (origin tube 512) 0 UFC; (origin tube 526) 0 UFC.
